The text below walks through data of patent US7910344B2, “Proteins having tyrosinase activity” (Valtion teknillinen tutkimuskeskus, priority 2005, dated 2011).

Experiment [1] deals with TYR2. The experiment can be described thus: Substrate specificity by oxygen consumption measurements, purified TYR2. In kind it is biochemical, Trichoderma reesei. How it is done:
(§1) pH optimum for the tyrosinase was studied by oxygen consumption measurements. Measurements were performed with a single channel oxygen meter (Precision sensing GmbH, Germany) containing fiber-optic oxygen minisensors with measurement range 0-100% oxygen. L-Dopa in 15 mM concentration, dissolved in 0.1 M sodium phosphate buffer, pH 7.0, was used as substrate. Reactions were carried out with 1.8 ml substrate solution and with 4.3 μg of the purified T. reesei tyrosinase. Three different buffers were used according to their buffer capacity. McIlvaine buffer was used within a pH range of 2-7, Tris-HCl buffer (50 mM) within a pH range 7-9 and borate buffer (12.5 mM) within a pH range of 8-9.5. […] In the measurements with Tris-HCl buffer in pH 8, 8.5 and 9.0 also a blank test without enzyme addition was performed to correct the effect of auto-oxidation in results.
(§2) Substrate specificity of the tyrosinase on various selected substrates was studied by oxygen consumption measurements. The concentration of substrates was 2.5 mM, and the compounds were dissolved in 0.1 M sodium phosphate buffer, pH 7.0. Reactions were carried out with 1.8 ml of 2.5 mM substrate solutions and with 24 μg of the purified TYR2. As a reference the substrate specificity assays were also determined for the commercial Agaricus bisporus crude tyrosinase (Sigma). Respectively, 50 μg of said mushroom tyrosinase was used in the assays. Activity of TYR2 and Agaricus tyrosinase were analyzed on selected model peptides containing tyrosine in different positions in the peptide chain (Table 5). Oxidation of L-/DL-D-Dopa and -tyrosine by TYR2 and Agaricus tyrosinase was also measured (Table 6).

Experiment [2] has as its system Agaricus bisporus crude tyrosinase (Sigma). The experiment can be described thus: Substrate specificity by oxygen consumption measurements, commercial Agaricus tyrosinase. In kind it is biochemical. The note with it: for Agaricus tyr Relative oxygen consumption (%): mono-phenols. How it is done: as §1, §2
Experiment [3] has as its system Trichoderma reesei. The experiment can be described thus: Plate test screening for tyrosinase activity from T. reesei. The class given is cell-based. The note with it: T. reesei on Malt Extract agar with indicator. How it is done:
The indicators for tyrosinase activity screening were selected according to literature. L-Tyrosine, p-cresol, p-coumaric acid, tyramine, 3-hydroxy antranilic acid, and catechin were used in concentrations shown in Table 1. Trichoderma reesei was grown on Malt Extract agar containing the selected indicators (Table 1) (Difco) at 37° C. for 48 days. Possible colour changes on the plates were observed visually.

Experiment [4] relates to TYR2. The experiment can be described thus: Tyrosinase activity assay monitoring dopachrome formation at 475 nm. The class given is biochemical, Trichoderma reesei.
Procedure: The activity was also measured on L-tyrosine (Sigma) in concentration of 2 mM. Both activity assays were carried out in 0.1 M sodium phosphate buffer (pH 7.0) at 25° C. monitoring dopachrome formation at 475 nm. The molar extinction coefficient ε 3400 M^−1 cm^−1 (Robb, 1984) was used. Measurements were carried out by using a two-beam spectrophotometer (Lambda 20, Perkin-Elmer, Über-lingen, Germany). Activities were expressed as nanokatals.
The result was also confirmed by determining the enzyme activity on L-Dopa and L-tyrosine by following oxygen consumption in enzymatic reaction. […] The effect of SDS (Sigma) on tyrosinase activity was measured using different concentrations of SDS in the activity assay.
[5] abbreviates: mono-phenols, in relation to L-tyrosine, 2.5 mM substrate, pH 7.0, 24 μg TYR2.
[6] abbreviates: in relation to L-tyrosine, 2.5 mM substrate, pH 7.0, 50 μg mushroom tyrosinase.
Setting [7] is: L-/DL-/D-tyrosine, L-tyrosine = 100.
[8] abbreviates: di-peptides, in relation to L-tyrosine, 2.5 mM substrate, pH 7.0.
Setting [9] is: di- and tri-phenolic compounds, in relation to L-Dopa, 2.5 mM substrate, pH 7.0, 24 μg TYR2.
[10] abbreviates: di- and tri-phenolic compounds, in relation to L-Dopa, 2.5 mM substrate, pH 7.0, 50 μg mushroom tyrosinase.

Read-outs that look alike come from different tables or passages of the source.

For the compound `Oc1ccc(S)cc1` [4-Mercaptophenol], the “TYR2 Relative oxygen consumption (%)” value in experiment [1] (setting [5]) was determined as 0%. In addition, the “Agaricus tyr Relative oxygen consumption (%)” value in experiment [2] (setting [6]) amounted to 0%.

With `OCCc1ccc(O)cc1` [p-Tyrosol], in experiment [1] (setting [5]), the “TYR2 Relative oxygen consumption (%)” value worked out at 346%. Also, the “Agaricus tyr Relative oxygen consumption (%)” value in experiment [2] (setting [6]) was 157%.

For `NC(Cc1ccc(O)cc1)C(=O)O` (racemic) [DL-tyrosine], the “TYR2 Relative oxygen consumption (%)” value in experiment [1] (setting [7]) was found to be 40%. In addition, the “Agaricus tyrosinase Relative oxygen consumption (%)” value in experiment [2] came to 102%.

With `N[C@@H](Cc1ccc(O)cc1)C(=O)O` [L-Tyrosine], the “TYR2 Relative oxygen consumption (%)” value in experiment [1] (setting [7]), in experiment [1] (setting [8]) and in experiment [1] (setting [5]) was 100% each time. The “Reaction with indicator in plate test” value in experiment [3] is listed as “clear positive reactions”. In addition, the “Agaricus tyrosinase Relative oxygen consumption (%)” value in experiment [2] and in experiment [2] (setting [8]) was 100% each time. The “Agaricus tyr Relative oxygen consumption (%)” value in experiment [2] (setting [6]) was 100%.

On to `O=C(O)C=Cc1ccccc1O` [o-Coumaric acid], for which, in experiment [1] (setting [5]), the “TYR2 Relative oxygen consumption (%)” value worked out at 0%. Besides, the “Agaricus tyr Relative oxygen consumption (%)” value in experiment [2] (setting [6]) was found to be 0%.

As for `Oc1ccccc1` [Phenol], the “TYR2 Relative oxygen consumption (%)” value in experiment [1] (setting [5]) is 121%. Besides, the “Agaricus tyr Relative oxygen consumption (%)” value in experiment [2] (setting [6]) worked out at 85%.

With `Oc1cccc(O)c1O` [Pyrogallol], the “TYR2 Relative oxygen consumption (%)” value in experiment [1] (setting [9]) stood at 55%. Further, the “Agaricus tyrosinase Relative oxygen consumption (%)” value in experiment [2] (setting [10]) is on record as 248%.

`Cc1ccc(O)cc1` [p-Cresol]: the “TYR2 Relative oxygen consumption (%)” value in experiment [1] (setting [5]) is recorded as 172%. In addition, the “Agaricus tyr Relative oxygen consumption (%)” value in experiment [2] (setting [6]) was 104%.

`Oc1cc(O)c2c(c1)O[C@H](c1ccc(O)c(O)c1)[C@H](O)C2` [(−)-Epicatechin]: the “TYR2 Relative oxygen consumption (%)” value in experiment [1] (setting [9]) was determined as 106%. For the same compound, the “Agaricus tyrosinase Relative oxygen consumption (%)” value in experiment [2] (setting [10]) is reported as 286%.

As to Catechin, in experiment [3], the “Reaction with indicator in plate test” value is recorded as “clear positive reactions”.

As for `Oc1ccccc1O` [Pyrocatechol], in experiment [1] (setting [9]), the “TYR2 Relative oxygen consumption (%)” value is 88%. Besides, the “Agaricus tyrosinase Relative oxygen consumption (%)” value in experiment [2] (setting [10]) amounted to 328%.

As to `NC(Cc1ccc(O)c(O)c1)C(=O)O` (racemic) [DL-dopa], the “TYR2 Relative oxygen consumption (%)” value in experiment [1] (L-/DL-/D-dopa, L-dopa = 100) stood at 46%. Moreover, in experiment [2] (L-/DL-/D-dopa, L-dopa = 100), the “Agaricus tyrosinase Relative oxygen consumption (%)” value is 118%.

As for `N[C@H](Cc1ccc(O)c(O)c1)C(=O)O` [D-dopa], the “TYR2 Relative oxygen consumption (%)” value in experiment [1] (L-/DL-/D-dopa, L-dopa = 100) was determined as 18%. The “Agaricus tyrosinase Relative oxygen consumption (%)” value in experiment [2] (L-/DL-/D-dopa, L-dopa = 100) is listed as 106%.

As to `Nc1c(O)cccc1C(=O)O` [3-Hydroxyanthranilic acid], the “TYR2 Relative oxygen consumption (%)” value in experiment [1] (setting [5]) was determined as 0%. The “Reaction with indicator in plate test” value in experiment [3] is listed as “clear positive reactions”. Besides, the “Agaricus tyr Relative oxygen consumption (%)” value in experiment [2] (setting [6]) came out at 0%.

For the compound `Oc1cc(O)c2c(c1)O[C@H](c1ccc(O)c(O)c1)[C@@H](O)C2` [(+)-Catechin hydrate], in experiment [1] (setting [9]), the “TYR2 Relative oxygen consumption (%)” value is listed as 220%. In addition, the “Agaricus tyrosinase Relative oxygen consumption (%)” value in experiment [2] (setting [10]) is reported as 282%.

For the compound `N[C@H](Cc1ccc(O)cc1)C(=O)O` [D-tyrosine], the “TYR2 Relative oxygen consumption (%)” value in experiment [1] (setting [7]) is listed as 7%. Besides, the “Agaricus tyrosinase Relative oxygen consumption (%)” value in experiment [2] amounted to 61%.

`CCCCCCCCCCCCOS(=O)(=O)[O-].[Na+]` [SDS, sodium dodecyl sulfate]: in experiment [4] (0.5 mM SDS in the activity assay), the “Tyrosinase activity left in presence of SDS” value is 50%.

In the case of `N[C@@H](Cc1ccc(O)c(O)c1)C(=O)O` [L-Dopa, L-3,4 dihydroxyphenylalanine], the “TYR2 Relative oxygen consumption (%)” value in experiment [1] (L-/DL-/D-dopa, L-dopa = 100) came to 100%; in experiment [1] (setting [9]), 100%. The “Activity on L-Dopa compared with L-tyrosine” value in experiment [4] (15 mM L-Dopa, 2 mM L-tyrosine, pH 7.0, 25° C.) is “approximately six times higher activity values than L-tyrosine”. Further, the “Agaricus tyrosinase Relative oxygen consumption (%)” value in experiment [2] (L-/DL-/D-dopa, L-dopa = 100) is 100%; in experiment [2] (setting [10]) it was 100%.

In the case of `COc1cc(/C=C/C(=O)O)ccc1O` [Ferulic acid], the “TYR2 Relative oxygen consumption (%)” value in experiment [1] (setting [5]) stood at 0%. In experiment [2] (setting [6]), the “Agaricus tyr Relative oxygen consumption (%)” value amounted to 0%.

As for `O=C(O)C=Cc1ccc(O)cc1` [p-Coumaric acid], the “TYR2 Relative oxygen consumption (%)” value in experiment [1] (setting [5]) was 390%. In experiment [2] (setting [6]), the “Agaricus tyr Relative oxygen consumption (%)” value stood at 0%.

Take `NCCc1ccc(O)cc1` [Tyramine]: the “TYR2 Relative oxygen consumption (%)” value in experiment [1] (setting [5]) was determined as 42%. Also, in experiment [3], the “Reaction with indicator in plate test” value is “clear positive reactions”. For the same compound, the “Agaricus tyr Relative oxygen consumption (%)” value in experiment [2] (setting [6]) is 85%.

As to `Nc1ccc(O)cc1` [4-Aminophenol], in experiment [1] (setting [5]), the “TYR2 Relative oxygen consumption (%)” value was 8%. Moreover, the “Agaricus tyr Relative oxygen consumption (%)” value in experiment [2] (setting [6]) is given as 9%.
